Laboratory results as given in patent US20130102631A1, “NOVEL MICROBIOCIDAL DIOXIME ETHER DERIVATIVES” (SYNGENTA CROP PROTECTION LLC, priority 2010, published 2013).

Columns and labels:
[1] = system: Mycosphaerella arachidis (Cercospora arachidicola); assay: Mycosphaerella arachidis (Cercospora arachidicola) / liquid culture (early leaf spot); assay type: cell-based; details: at ≦200 ppm, liquid culture PDB, inhibition of growth photometrically 4-5 days after application, read-out: control of Mycosphaerella arachidis
Description: Mycosphaerella arachidis (Cercospora arachidicola)/Liquid Culture (Early Leaf Spot): Conidia of the fungus from cryogenic storage were directly mixed into nutrient broth (PDB potato dextrose broth). After placing a DMSO solution of test compound into a 96-well microtiter plate, the nutrient broth containing the fungal spores was added. The test plates are incubated at 24° C. and the inhibition of growth was determined photometrically 4-5 days after application. […]-2.509; 5.561; 2.561; P.57; 2.513; 2.559; 2.558; 2.557; 2.556; 2.555; 2.374; 2.553; 2.552; 2.551 (fraction B); 2.551 (fraction A); 2.544; 2.541; 2.539; 2.537; 2.536; 2.533; 2.532; 2.531; 2.530; 2.528; 2.526; 2.525 (fraction B); 2.525 (fraction A); 2.524; 2.520; 2.519; 2.510; 2.518; 2.517; 2.516; 2.514; […].002; 2.512; 2.511; 2.514

[2] = system: Gaeumannomyces graminis; assay: Gaeumannomyces graminis / liquid culture (take-all of cereals); assay type: cell-based; details: at ≦200 ppm, liquid culture PDB, inhibition of growth photometrically 4-5 days after application, read-out: control of Gaeumannomyces graminis
Description: Gaeumannomyces graminis/Liquid Culture (Take-All of Cereals): Mycelial fragments of the fungus from cryogenic storage were directly mixed into nutrient broth (PDB potato dextrose broth). After placing a DMSO solution of test compound into a 96-well microtiter plate, the nutrient broth containing the fungal spores is added. The test plates were incubated at 24° C. and the inhibition of growth was determined photometrically 4-5 days after application. […]-2.509; 5.561; 2.561; P.57; 2.513; 2.559; 2.558; 2.557; 2.556; 2.555; 2.374; 2.553; 2.552; 2.551 (fraction B); 2.551 (fraction A); 2.539; 2.533; 2.528; 2.526; 2.525 (fraction B); 2.525 (fraction A); 2.524; 2.523; 2.521; 2.520; 2.519; 2.510; 2.518; 2.516; 2.514; E/E-5.167; E/E-3.002; 2.512; E/E-2.508

[3] = system: Puccinia recondita f. sp. tritici; assay: Puccinia recondita f. sp. tritici / wheat / leaf disc preventative (brown rust); assay type: in vivo; details: foliar, wheat leaf segments cv Kanzler, inoculated 1 day after application, assessed 7-9 days after application
Description: Puccinia recondita f. sp. Tritici/Wheat/Leaf Disc Preventative (Brown Rust): Wheat leaf segments cultivated variety (cv) Kanzler were placed on agar in 24-well plates and sprayed with formulated test compound diluted in water at an application rate of 200 ppm. The leaf disks were inoculated with a spore suspension of the fungus 1 day after application. The inoculated leaf segments were incubated at 19° C. and 75% relative humidity under a light regime of 12/12 h (light/dark) in a climate cabinet and the activity of a compound was assessed as percent disease control compared to untreated when an appropriate level of disease damage appears in untreated check leaf segments (7-9 days after application). […]-2.508; 5.561; 2.561; 2.513; 2.559; 2.556; 2.555; 2.374; 2.544; 2.537; 2.530; 2.525 (fraction B); 2.519; 2.516; 2.514; E/E-5.167; E/E-3.002; 2.512; E/E-2.507

[4] = system: Monographella nivalis (Microdochium nivale); assay: Monographella nivalis (Microdochium nivale) / liquid culture (foot rot cereals); assay type: cell-based; details: at ≦200 ppm, liquid culture PDB, inhibition of growth photometrically 4-5 days after application, read-out: control of Monographella nivalis
Description: Monographella nivalis (Microdochium nivale)/Liquid Culture (Foot Rot Cereals): Conidia of the fungus from cryogenic storage were directly mixed into nutrient broth (PDB potato dextrose broth). After placing a DMSO solution of test compound into a 96-well microtiter plate, the nutrient broth containing the fungal spores was added. The test plates were incubated at 24° C. and the inhibition of growth was determined photometrically 4-5 days after application. […].57; 2.513; 2.559; 2.558; 2.556; 2.555; 2.374; 2.553; 2.551 (fraction B); 2.551 (fraction A); 2.548; 2.544; 2.542; 2.541; 2.539; 2.536; 2.535; 2.533; 2.530; 2.528; 2.526; 2.525 (fraction B); 2.525 (fraction A); 2.524; 2.519; 2.518; 2.516; 2.514; E/E-5.167; 2.512; 2.514

[5] = system: Mycosphaerella graminicola (Septoria tritici); assay: Mycosphaerella graminicola (Septoria tritici) / liquid culture (Septoria blotch); assay type: cell-based; details: Zymoseptoria tritici; at ≦200 ppm, liquid culture PDB, inhibition of growth photometrically 4-5 days after application; read-out: control of Mycosphaerella graminicola
[6] = system: Blumeria graminis f. sp. tritici (Erysiphe graminis f. sp. tritici); assay: Blumeria graminis f. sp. tritici / wheat / leaf disc preventative (powdery mildew on wheat); assay type: in vivo; details: foliar, wheat leaf segments cv. Kanzler, inoculated 1 day after application, assessed 6-8 days after application
Description: Blumeria graminis f. sp. tritici (Erysiphe graminis f. sp. tritici)/Wheat/Leaf Disc Preventative (Powdery Mildew on Wheat):
Wheat leaf segments cv. Kanzler were placed on agar in a 24-well plate and sprayed with the formulated test compound diluted in water at an application rate of 200 ppm. The leaf disks were inoculated by shaking powdery mildew infected plants above the test plates 1 day after application. The inoculated leaf disks were incubated at 20° C. and 60% relative humidity under a light regime of 24 h darkness followed by 12 h/12 h (dark/light) in a climate chamber and the activity of a compound was assessed as percent disease control compared to untreated when an appropriate level of disease damage appears on untreated check leaf segments (6-8 days after application). The following compounds gave at least 80% control of Blumeria graminis: E/E-2.168, E/E-2.474, E/E-2.002; 5.561; 2.561; E/E-2.208; 2.513; 2.559; 2.557; 2.556; 2.555; 2.374; 2.552; 2.537; 2.533; 2.530; 2.528; 2.526; 2.519; 2.510; 2.516; 2.514; E/E-5.167; E/E-3.002; 2.512; 2.511

[7] = system: Phaeosphaeria nodorum (Septoria nodorum); assay: Phaeosphaeria nodorum (Septoria nodorum) / wheat / leaf disc preventative (glume blotch); assay type: in vivo; details: Parastagonospora nodorum, foliar, wheat leaf segments cv Kanzler, inoculated 2 days after application, assessed 5-7 days after application
Description: Phaeosphaeria nodorum (Septoria nodorum)/Wheat/Leaf Disc Preventative (Glume Blotch): Wheat leaf segments cv Kanzler were placed on agar in a 24-well plate and sprayed with formulated test compound diluted in water at an application rate of 200 ppm. The leaf disks are inoculated with a spore suspension of the fungus 2 days after application. The inoculated test leaf disks are incubated at 20° C. and 75% relative humidity under a light regime of 12/12 h (light/dark) in a climate cabinet and the activity of a compound is assessed as percent disease control compared to untreated when an appropriate level of disease damage appears in untreated check leaf disks (5-7 days after application). […]-2.508; 5.561; 2.561; E/E-2.208; P.57; 2.513; 2.559; 2.558; 2.557; 2.556; 2.555; 2.374; 2.544; 2.541; 2.539; 2.537; 2.536; 2.535; 2.533; 2.530; 2.526; 2.519; 2.510; 2.516; 2.514; E/E-5.167; E/E-3.002; 2.512

[8] = system: Pyrenophora teres; assay: Pyrenophora teres / barley / leaf disc preventative (net blotch); assay type: in vivo; details: foliar, barley leaf segments cv Hasso, inoculated two days after application, assessed 5-7 days after application
Description: Pyrenophora teres/Barley/Leaf Disc Preventative (Net Blotch): Barley leaf segments cv Hasso are placed on agar in a 24-well plate and sprayed with formulated test compound diluted in water at an application rate of 200 ppm. The leaf segments are inoculated with a spore suspension of the fungus two days after application of the test solution. The inoculated leaf segments are incubated at 20° C. and 65% relative humidity under a light regime of 12/12 h (light/dark) in a climate cabinet and the activity of a compound is assessed as disease control compared to untreated when an appropriate level of disease damage appears in untreated check leaf segments (5-7 days after application). […]-2.507; 5.561; 2.561; E/E-2.208; P.57; 2.513; 2.559; 2.558; 2.556; 2.555; 2.374; 2.552; 2.544; 2.537; 2.533; 2.530; 2.528; 2.519; 2.510; 2.516; 2.514; E/E-5.167; E/E-3.002; 2.512

[9] = system: Glomerella lagenarium; assay: Glomerella lagenarium (Colletotrichum lagenarium) / liquid culture (anthracnose); assay type: cell-based; details: Colletotrichum orbiculare; at ≦200 ppm, liquid culture PDB, inhibition of growth photometrically 3-4 days after application; read-out: control of Glomerella lagenarium
Description: Glomerella lagenarium (Colletotfichum lagenarium)/Liquid Culture (Anthracnose): Conidia of the fungus from cryogenic storage were directly mixed into nutrient broth (PDB potato dextrose broth). After placing a DMSO solution of test compound into a 96-well microtiter, the nutrient broth containing the fungal spores was added. The test plates were incubated at 24° C. and the inhibition of growth is measured photometrically 3-4 days after application. […]-2.509; 5.561; 2.561; E/E-2.208; P.57; 2.513; 2.559; 2.556; 2.555; 2.374; 2.552; 2.548; 2.544; 2.541; 2.540; 2.539; 2.537; 2.536; 2.533; 2.531; 2.530; 2.528; 2.526; 2.519; 2.510; 2.516; 2.514; E/E-5.167; E/E-3.002; 2.512; 2.514; Z/E-2.474

[10] = system: Puccinia recondita f. sp. tritici; assay: Puccinia recondita f. sp. tritici / wheat / leaf disc curative (brown rust); assay type: in vivo; details: foliar, wheat leaf segments cv Kanzler, 200 ppm applied 1 day after inoculation, assessed 6-8 days after application
Description: Puccinia recondita f. sp. tritici/Wheat/Leaf Disc Curative (Brown Rust): Wheat leaf segments cv Kanzler were placed on agar in 24-well plates. The leaf segments were inoculated with a spore suspension of the fungus. The plates were stored in darkness at 19° C. and 75% relative humidity. The formulated test compound diluted in water was applied at an application rate of 200 ppm 1 day after inoculation. […]-2.508; 5.561; 2.561; E/E-2.208; 2.513; 2.559; 2.556; 2.555; 2.374; 2.552; 2.537; 2.519; 2.516; 2.514; […].002; 2.512; E/E-2.507

CC/C(=N/OCC(C)(C)CO/N=C1\CCCc2ccc(C)nc21)c1ncc(Cl)cc1F (single isomer, unassigned) [2.525 (fraction B)]
≥ 80%: inhibition of growth at up to 200 µg/mL [1] | inhibition of growth at up to 200 µg/mL [2] | pest or weed control at 200 ppm [3] | inhibition of growth at up to 200 µg/mL [4] | inhibition of growth at up to 200 µg/mL [5]

Cc1ccc2c(n1)/C(=N/OCC(C)(C)CO/N=C(\c1ccccc1)c1ccccn1)CCC2 [Compound 2.510]
≥ 80%: pest or weed control at 200 ppm [6] | pest or weed control at 200 ppm [7] | pest or weed control at 200 ppm [8] | inhibition of growth at up to 200 µg/mL [1] | inhibition of growth at up to 200 µg/mL [2] | inhibition of growth at up to 200 µg/mL [9] | inhibition of growth at up to 200 µg/mL [5]

Cc1ccc2c(n1)/C(=N/OCC(C)(C)CO/N=C/c1cccc(CO)n1)CCC2 [Compound 2.528]
≥ 80%: pest or weed control at 200 ppm [6] | pest or weed control at 200 ppm [8] | inhibition of growth at up to 200 µg/mL [1] | inhibition of growth at up to 200 µg/mL [2] | inhibition of growth at up to 200 µg/mL [9] | inhibition of growth at up to 200 µg/mL [4] | inhibition of growth at up to 200 µg/mL [5]

Cc1ccc2c(n1)/C(=N/OCC(C)(C)CO/N=C(\c1ccncc1)c1ccccn1)CCC2 [Compound 2.537]
≥ 80%: pest or weed control at 200 ppm [6] | pest or weed control at 200 ppm [7] | pest or weed control at 200 ppm [8] | inhibition of growth at up to 200 µg/mL [1] | pest or weed control at 200 ppm [3] | inhibition of growth at up to 200 µg/mL [9] | pest or weed control at 200 ppm [10] | inhibition of growth at up to 200 µg/mL [5]

C/C(=N\OCC(C)(C)CO/N=C1\CCCc2ccc(C)nc21)c1cccc(-c2ccccc2Cl)n1 [Compound 2.544]
≥ 80%: pest or weed control at 200 ppm [7] | pest or weed control at 200 ppm [8] | inhibition of growth at up to 200 µg/mL [1] | pest or weed control at 200 ppm [3] | inhibition of growth at up to 200 µg/mL [9] | inhibition of growth at up to 200 µg/mL [4] | inhibition of growth at up to 200 µg/mL [5]

Cc1ccc2c(n1)/C(=N/OCC(C)(C)CO/N=C/c1ncc(Cl)cc1F)CCC2 [Compound 2.552]
≥ 80%: pest or weed control at 200 ppm [6] | pest or weed control at 200 ppm [8] | inhibition of growth at up to 200 µg/mL [1] | inhibition of growth at up to 200 µg/mL [2] | inhibition of growth at up to 200 µg/mL [9] | pest or weed control at 200 ppm [10] | inhibition of growth at up to 200 µg/mL [5]

C/C(=N\OCC(C)(C)CO/N=C1\CCCc2c(C)cc(CF)nc21)c1cc(C)cc(C)n1 [E/E-2.208]
≥ 80%: pest or weed control at 200 ppm [6] | pest or weed control at 200 ppm [7] | pest or weed control at 200 ppm [8] | inhibition of growth at up to 200 µg/mL [9] | pest or weed control at 200 ppm [10]

C/C(=N\OCC(C)(O)CO/N=C1\CCCc2ccc(C)nc21)c1cccc(C)n1 (stereo not drawn) [E/E-14.002]
≥ 80%: inhibition of growth at up to 200 µg/mL [1] | pest or weed control at 200 ppm [10]
